Assay results reported in paper PMC3597730, “Novel Phenolic Inhibitors of Small/Intermediate-Conductance Ca^2+-Activated K^+ Channels, KCa3.1 and KCa2.3” (PLoS ONE, 2013).
Where “and” joins values, the source holds several entries; their conditions need not be identical. Equal values may be shown once.

Legend:
[1] = molecular target: T1, KCa3.1 channels in 3T3 fibroblasts (Mus musculus, UniProt O89109); test: Whole-cell patch-clamp of KCa3.1 currents in 3T3 fibroblasts; assay type: cell-based
T1 construct: KCa3.1 channels in 3T3 fibroblasts; endogenous in cells; host or cells: 3T3-L1 mouse embryonic fibroblasts

hKCa2.3 = molecular target: T2, hKCa2.3 (Homo sapiens, UniProt Q9UGI6); test: Whole-cell patch-clamp of hKCa2.3 in COS7 cells; assay type: cell-based
T2 construct: expressed in transfected cells; host or cells: COS7

KCa1.1 = system: T3, KCa1.1; test: Whole-cell patch-clamp of KCa1.1 in U251 glioblastoma cells; assay type: cell-based, human
T3 construct: KCa1.1 in human U251 glioblastoma cells; endogenous in cells; host or cells: U251 glioblastoma cells

hKv1.2 = molecular target: T4, hKv1.2 (Homo sapiens, UniProt P16389); test: Whole-cell patch-clamp of cloned hKv1.2; assay type: cell-based
T4 construct: expressed in transfected cells; host or cells: B82 murine fibroblasts (Methods)

hERG channels = system: T5, hERG channels; test: Whole-cell patch-clamp of hERG tail currents in HEK293 cells; assay type: cell-based, human; details: 13b 1 µM; caffeic acid, flufenamic acid 10 µM (Table S1)
T5 construct: expressed in transfected cells; gift of Craig January, University of Wisconsin

hERG = system: T6, hERG; test: as above; assay type: cell-based, human; details: human, HEK293 cells expressing hERG, pH 7.4; hERG; compound 10 µM; read-out: % of control at 10 µM
T6 construct: expressed in transfected cells; gift of Craig January, University of Wisconsin

3T3 fibroblasts = test: Cell proliferation assay (Janus B Green staining); assay type: cell-based, mouse; details: 3T3 cells
Procedure: Cell proliferation was spectrophotometrically assessed as described previously with some modifications. Briefly, 3T3 fibroblasts (1500 cells/well) were seeded in 96-well plates (TPP. Switzerland), cultured in DMEM containing 10% FCS (Lonza, Switzerland) with 13b or vehicle (DMSO), and formalin-fixed at days 0,1,2 and 3. To exclude the possibility that DMSO as vehicle affected the cell viability per se, final DMSO concentrations were the same for each concentration of 13b and the controls. Fixed cells were stained for 5 minutes with 50 ul/well of 0.3% Janus B Green dye (Acros Organics, Belgium) at room temperature with constant stirring followed by a de-staining step with water. Dye was eluted with 200 ul/well of 0.5 M HCl of hydrochloric acid and top-read measurements of absorbance were performed in a microplate reader (Sinergy HT, Biotek, USA) at 595 nm.

[2] = system: mixed KCa3.1 and KCa2.3 currents in PCAEC; test: Whole-cell patch-clamp of KCa currents in porcine coronary artery endothelial cells; assay type: cell-based; details: 50 µM, n = 1

T2 sequence (Q9UGI6 whole entry): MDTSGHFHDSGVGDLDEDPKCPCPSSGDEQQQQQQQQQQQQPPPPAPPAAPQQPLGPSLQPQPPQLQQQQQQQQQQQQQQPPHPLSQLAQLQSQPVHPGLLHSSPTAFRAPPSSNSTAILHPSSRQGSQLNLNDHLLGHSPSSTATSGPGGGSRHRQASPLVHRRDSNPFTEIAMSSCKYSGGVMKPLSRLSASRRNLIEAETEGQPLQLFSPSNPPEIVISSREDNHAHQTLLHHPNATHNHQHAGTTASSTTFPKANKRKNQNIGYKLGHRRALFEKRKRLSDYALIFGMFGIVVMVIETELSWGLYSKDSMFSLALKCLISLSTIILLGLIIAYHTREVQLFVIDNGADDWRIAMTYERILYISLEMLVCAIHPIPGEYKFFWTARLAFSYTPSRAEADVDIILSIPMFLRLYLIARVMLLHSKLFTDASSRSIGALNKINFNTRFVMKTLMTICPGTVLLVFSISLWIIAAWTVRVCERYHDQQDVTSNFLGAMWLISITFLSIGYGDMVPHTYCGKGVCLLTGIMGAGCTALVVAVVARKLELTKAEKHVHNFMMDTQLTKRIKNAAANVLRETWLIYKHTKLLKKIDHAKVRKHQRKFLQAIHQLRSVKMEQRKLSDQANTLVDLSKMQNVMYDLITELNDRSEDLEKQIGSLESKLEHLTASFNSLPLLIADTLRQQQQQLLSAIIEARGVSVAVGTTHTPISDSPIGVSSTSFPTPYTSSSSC
T4 sequence (P16389 whole entry): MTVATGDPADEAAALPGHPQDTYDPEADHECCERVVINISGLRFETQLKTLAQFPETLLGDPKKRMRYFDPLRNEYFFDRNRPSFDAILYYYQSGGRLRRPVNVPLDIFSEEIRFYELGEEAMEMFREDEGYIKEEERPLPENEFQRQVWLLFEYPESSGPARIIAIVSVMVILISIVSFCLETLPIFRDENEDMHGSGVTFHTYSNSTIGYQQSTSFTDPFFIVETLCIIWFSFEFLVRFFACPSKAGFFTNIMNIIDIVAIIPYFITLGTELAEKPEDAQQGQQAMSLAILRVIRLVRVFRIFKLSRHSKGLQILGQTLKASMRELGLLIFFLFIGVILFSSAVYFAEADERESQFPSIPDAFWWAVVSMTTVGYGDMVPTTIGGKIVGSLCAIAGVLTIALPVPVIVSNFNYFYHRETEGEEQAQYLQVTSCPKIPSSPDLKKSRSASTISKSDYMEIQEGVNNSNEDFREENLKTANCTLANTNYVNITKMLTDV

Compound: O=C(O)/C=C/c1ccc(O)c(O)c1 [Caffeic Acid, (E)-3-(3,4-dihydroxyphenyl)propenoic acid]
- remaining activity at 10 µM ([1]; read-out: KCa3.1 current blocked, % of control): 28 ± 10%
- KCa3.1 blocking effect (in words) ([1]; whole-cell, 3T3 fibroblasts, concentrations up to 50 µM as in Table 1): Complete inhibition
- EC50 ([1]; whole-cell, 3T3 fibroblasts, read-out: EC50 of KCa3.1 inhibition): 1300 nM and 1000 to 10000 nM
- remaining activity at 10 µM (hKCa2.3; COS-7, read-out: % of control at 10 µM): 108 ± 7%
- remaining activity at 50 µM (hKCa2.3; COS-7, read-out: % of control at 50 µM): 97 ± 1%
- KCa2.3 blocking effect (in words) (hKCa2.3; micromolar concentrations): no blocking effects
- KCa1.1 effect (in words) (KCa1.1; U251 glioblastoma cells, 13b 1 µM, caffeic acid 10 µM): no blocking or activating effects
- % of control at 10 µM (KCa1.1; hKCa1.1, compound 10 µM): 103 ± 14%
- hKv1.2 blocking effect (in words) (hKv1.2; flufenamic acid and caffeic acid 10 and 50 µM, 13c 1 µM): did not block
- remaining activity at 10 µM (hKv1.2; hKv1.2, compound 10 µM, read-out: % of control at 10 µM): 100 ± 2%
- remaining activity at 50 µM (hKv1.2; hKv1.2, compound 50 µM, read-out: % of control at 50 µM): 97 ± 1%
- hERG effect (in words) (hERG channels): not blocked
- activity at 10 µM (hERG): 97 ± 6%
- change of proliferation vs. vehicle-treated controls (3T3 fibroblasts; 25 µM): −27%
- change of proliferation vs. vehicle-treated controls (3T3 fibroblasts; 50 µM): −56%
- mixed KCa3.1/KCa2.3 current, % of control [2]: 6%
